Source: US20240041050A1, “CELL PENETRATING PEPTIDE MEDIATED RNA TRANSDUCTION WITHIN INSECT CELLS” (PIONEER HI-BRED INTERNATIONAL, INC., priority 2020, published 2024)
Ends that are not written are not given here.

Columns and labels:
[1] = system: western corn rootworm (WCR) larvae; assay: Oral toxicity screening of CPPs in artificial diet; type: in vivo; details: first instar WCR larvae; for Affected (%): mortality and stunting
Method: Briefly, CPPs were incorporated into standard WCR artificial diet in 96-well microtiter plate format. A 25 μL aliquot of dosing solution was combined with 75 μL molten low-melt WCR diet and shaken on an orbital shaker to mix. Once diet solidified, preconditioned first instar WCR (freshly-hatched insects placed on neutral diet for 24 hours prior to transfer to test diet) were added to the diet plates at a rate of 1 insect·well^−1. Plates were placed inside an incubator (Percival Scientific, Inc., Perry, IA) set to 27° C., 65% RH, and a 24-hour dark cycle. The assay was scored for mortality and stunting affects after 7 and 12 days, without diet refresh, on a 0-3 scale, where 3=mortality, 2=severe stunting, 1=stunting, 0=no affect when compared with untreated larvae. The assay was repeated three times and end-results were tabulated using all three replicates and converted to percentages (Table 5).

Sf9 cells = assay: CPP-mediated delivery of mCherry mRNA cargo into insect cells; type: cell-based, Spodoptera frugiperda; details: complex of 75 μM unlabeled CPP and 10 μg mCherry mRNA, overnight
Excerpt: (§1) Sample preparation and analysis methods were based on those previously reported (Jafari et al. (201 4) “Serum stability and physicochemical characterization of a novel amphipathic peptide C6M 1 for siRNA delivery”, PLoS One, 9(5), e97797; and Gillet et al. (2017) “Investigating Engineered Ribonucleoprotein Particles to Improve Oral RNAi Delivery in Crop Insect Pests”, Frontiers in Physiology, 8(256), doi: 10.3389/fphys.2017.00256). Reagents are described in Examples 1 and 2. Nanocomplex samples were prepared in one of several ways, depending on type of CPP, RNA, or assay. […] Reaction volumes added to cells were 6.38 μL CPP and 6.38 μL mRNA. Final optimal CPP concentration was assessed by amount of fluorescent signal apparent within cells. For insect cell-based assays with CPP-YFP·Cy3-dsRNA or CPP·dsRNA, first a complex formation solution was prepared in molecular biology-grade water containing 90 mg·mL^−1 maltose, 9 mg·mL^−1 mannitol, 392. 16 mM CaCI2, pH 7.0, and vacuum-filtered using Corning™ Disposable Vacuum Filter and Storage System containing a cellulose nitrate filter. Then, increasing amounts of CPP-YFP were added to Cy3-dsRNA, from a molar ratio (CPP-YFP:Cy3-dsRNA) of 1:4 through 8:1 and incubated protected from light at 25° C. for 90 minutes prior to assessment via gel shift and DLS. Reaction volumes added per cell well were comprised of 17 μL reaction solution, 1 μL CPP, 1 μL dsRNA, and 1 μL molecular biology grade water; reaction sizes for larger total volumes were increased in increments of 20 μL and component ratio was held constant to maintain an ionic strength of […]. Final optimal molar ratio selected for cell experiments were determined by increase of the apparent size of the Cy3-dsRNA band on a native agarose gel (FIG. 2A and FIG. 2B), and/or appearance and increase in size of the complex peak detected by a Zetasizer Ultra (Malvern Panalytical, Malvern, United Kingdom) DLS instrument (FIG. 2C). […] Final optimal BAPC1 concentration was assessed by amount of fluorescent signal apparent within cells. […]

DU182A cells = assay: as above; type: cell-based, Diabrotica undecimpunctata; details: complex of 75 μM unlabeled CPP and 10 μg mCherry mRNA, overnight
Excerpt: as §1

DvWL2 cells = assay: as above; type: cell-based, Diabrotica virgifera virgifera; details: complex of 75 μM unlabeled CPP and 10 μg mCherry mRNA, overnight
Excerpt: as §1

Compound | Mortality (%) ([1]; 0.195 ppm in artificial diet) | Affected (%) ([1]; 0.195 ppm in artificial diet) | Mortality (%) ([1]; 0.391 ppm in artificial diet) | Affected (%) ([1]; 0.391 ppm in artificial diet) | Mortality (%) ([1]; 0.781 ppm in artificial diet) | Affected (%) ([1]; 0.781 ppm in artificial diet) | Mortality (%) ([1]; 1.56 ppm in artificial diet) | Affected (%) ([1]; 1.56 ppm in artificial diet) | Mortality (%) ([1]; 3.13 ppm in artificial diet) | Affected (%) ([1]; 3.13 ppm in artificial diet) | Mortality (%) ([1]; 6.25 ppm in artificial diet) | Affected (%) ([1]; 6.25 ppm in artificial diet) | Mortality (%) ([1]; 12.5 ppm in artificial diet) | Affected (%) ([1]; 12.5 ppm in artificial diet) | Mortality (%) ([1]; 25.0 ppm in artificial diet) | Affected (%) ([1]; 25.0 ppm in artificial diet) | Mortality (%) ([1]; 50.0 ppm in artificial diet) | Affected (%) ([1]; 50.0 ppm in artificial diet) | Affected (%) ([1]; 100 ppm in artificial diet) | Affected (%) ([1]; 200 ppm in artificial diet) | further results
KQINNWFINQRKRHWK [Knotted-1, KQINNWFINQRKRHWK] | 0 | 0 | 0 | 0 | 0 | 0 | 0 | 0 | 0 | 0 | 0 | 0 | 0 | 0 | 0 | 0 | 0 | 0 | 0 | 0 | Mortality (%) ([1]; 100 ppm in artificial diet): 0%; Mortality (%) ([1]; 200 ppm in artificial diet): 0%; fluorescent protein translated from delivered mCherry mRNA (fluorescent signal inside cells) (Sf9 cells): Translation of mRNA into a functional fluorescent protein occurred; fluorescent protein translated from delivered mCherry mRNA (fluorescent signal inside cells) (DU182A cells): Translation of mRNA into a functional fluorescent protein occurred; fluorescent protein translated from delivered mCherry mRNA (fluorescent signal inside cells) (DvWL2 cells): Translation of mRNA into a functional fluorescent protein occurred
CSCC[C@H](NC(=O)[C@@H](NC(=O)[C@H](CO)NC(=O)CNC(=O)[C@H](C)NC(=O)[C@H](C)NC(=O)CNC(=O)[C@H](CC(C)C)NC(=O)[C@H](Cc1ccccc1)NC(=O)CNC(=O)[C@H](CC(C)C)NC(=O)[C@H](Cc1ccccc1)NC(=O)[C@H](CC(C)C)NC(=O)[C@H](C)NC(=O)CN)[C@@H](C)O)C(=O)NCC(=O)N[C@@H](C)C(=O)N[C@@H](Cc1c[nH]c2ccccc12)C(=O)N[C@@H](CO)C(=O)N[C@@H](CCC(N)=O)C(=O)N1CCC[C@H]1C(=O)N[C@@H](CCCCN)C(=O)N[C@@H](CO)C(=O)N[C@@H](CCCCN)C(=O)N[C@@H](CCCNC(=N)N)C(=O)N[C@@H](CCCCN)C(=O)N[C@H](C(=O)O)C(C)C [MPG] | – | 0 | – | 0 | – | 0 | – | 0 | – | 0 | – | 0 | – | 0 | – | 0 | – | 0 | 0 | 0 | fluorescent protein translated from delivered mCherry mRNA (fluorescent signal inside cells) (Sf9 cells): Translation of mRNA into a functional fluorescent protein occurred; fluorescent protein translated from delivered mCherry mRNA (fluorescent signal inside cells) (DU182A cells): Translation of mRNA into a functional fluorescent protein occurred; fluorescent protein translated from delivered mCherry mRNA (fluorescent signal inside cells) (DvWL2 cells): Translation of mRNA into a functional fluorescent protein occurred
VRLPPPVRLPPPLVRPPPL [VRLPPPVRLPPPLVRPPPL] | 0 | 0 | 0 | 0 | 0 | 0 | 0 | 0 | 0 | 0 | 0 | 0 | 0 | 0 | 0 | 0 | 0 | 0 | 0 | 0 | Mortality (%) ([1]; 100 ppm in artificial diet): 0%; Mortality (%) ([1]; 200 ppm in artificial diet): 0%
